In brackets after ≈: the same amount, converted by molar mass.

We go through one compound from ChEMBL document CHEMBL1777778 (Bioorg Med Chem Lett, 2011).

Series [1] in a line: Half life in Hanover Wistar rat at 3 mg/kg, iv. It is filed as ADME, organism-based. Also noted: dose 3 mg/kg, route intravenous. The following applies: in vivo.
Series [2] can be described thus: Aqueous solubility of the compound in phosphate buffer at pH 6.5 by reverse phase HPLC analysis. It is filed as physicochemical.
A short description of series [3]: Volume of distribution at steady state in Hanover Wistar rat at 3 mg/kg, iv. Set-up: dose 3 mg/kg, route intravenous. The note with it: in vivo, read-out: Vdss. It is filed as ADME, organism-based.
Series [4] is described as follows: Intrinsic clearance in human liver microsomes assessed per mg of protein. Format: ADME, Microsome. (Liver microsomes are a subcellular fraction often used to study metabolism.)
Series [5] can be described thus: Cmax in Hanover Wistar rat at 3 mg/kg, po. Set-up: dose 3 mg/kg, route oral. The note with it: in vivo. Format: ADME, organism-based.
Series [6] is described as follows: Oral bioavailability in Hanover Wistar rat at 3 mg/kg. It is filed as ADME, organism-based. The following applies: in vivo.
Series [7] is described as follows: AUC in Hanover Wistar rat at 3 mg/kg, po. Set-up: dose 3 mg/kg, route oral. The following applies: plasma. Format: ADME, organism-based.
Series [8] in a line: Permeability across basolateral to apical side in human Caco2 cells at 10 uM after 21 days. The following applies: Caco-2, read-out: permeability. Format: ADME, cell-based. (In general: Caco-2 cells form a polarised layer with tight junctions and transporters.)
A short description of series [9]: Clearance in Hanover Wistar rat at 3 mg/kg, iv. Format: ADME, organism-based. Also noted: dose 3 mg/kg, route intravenous. The note with it: in vivo.
Series [10] is described as follows: Intrinsic clearance in rat liver microsomes assessed per mg of protein. Format: ADME, Microsome.
A short description of series [11]: Permeability across apical to basolateral side of human Caco2 cells at 10 uM after 21 days. Format: ADME, cell-based. The note with it: Caco-2, read-out: permeability.

In the case of `C[C@H](CS(C)(=O)=O)Nc1n[nH]c2nc(Oc3ccc(F)cc3F)ncc12`, the half-life (in general, the time in which the quantity being followed falls by half) in series [1] is 3.4 h. Further, the solubility – broadly, the dissolved amount per volume that the medium holds – in series [2] was 57.2 µg/mL (≈ 149 µM). Moreover, the Vd in [3] was 8.1 L/kg. Also, the results for the microsomal CLint in [4] and in [10] were 0.74 µL/min/mg and 6.2 µL/min/mg, respectively. Besides, the highest level in series [5] (Cmax) was 446 ng/mL. In series [6], the bioavailability was determined as 105%. Moreover, in [7], the AUC (as a rule, the area under the concentration-time curve, a measure of exposure) worked out at 1220 ng·h/mL. In series [8], the Papp B→A at 10 µM stood at 18.9 ×10⁻⁶ cm/s. Moreover, the clearance (in general, the rate of elimination divided by the concentration) in series [9] is 43.6 mL/min/kg. In addition, the Papp A→B at 10 µM in [11] amounted to 3 ×10⁻⁶ cm/s.
